From patent US20090318424A1, “NOVEL COMPOUNDS” (priority 2006, published 2009) come the findings set out here.

Structures can show the parent of a compound that is named as a salt.

System in the first series: not given
Assay: not given
Conditions: not given
In general, melting point refers to the temperature, or range, at which the solid turns liquid. As to `COc1nc(-c2cc(NC(=O)c3ccsc3)ccc2C)c2c(n1)N(c1c(F)cccc1F)C(=O)NC2` [10(e), N-{3-[8-(2,6-difluorophenyl)-2-(methyloxy)-7-oxo-5,6,7,8-tetrahydropyrimido-[4,5-d]pyrimidin-4-yl]-4-methylphenyl}-3-thiophenecarboxamide], the melting point is 225 to 228 °C (dec.). In the case of `Cc1ccc(C(=O)NCc2ccccc2)cc1-c1nc(N2CCC(N)CC2)nc2c1CNC(=O)N2c1c(F)cccc1F` [15(c), 3-[2-(4-Amino-1-piperidinyl)-8-(2,6-difluorophenyl)-7-oxo-5,6,7,8-tetrahydropyrimido[4,5-d]pyrimidin-4-yl]-4-methyl-N-(phenylmethyl)benzamide], the melting point was 210 to 266 °C (dec.). In turn, `CNCCNc1nc(-c2cc(C(=O)NCc3ccccc3)ccc2C)c2c(n1)N(c1c(F)cccc1F)C(=O)NC2` [19(b), 3-(8-(2,6-Difluorophenyl)-2-{[2-(methylamino)ethyl]amino}-7-oxo-5,6,7,8-tetrahydropyrimido[4,5-d]pyrimidin-4-yl)-4-methyl-N-(phenylmethyl)benzamide] showed a melting point of 157 to 161 °C. Turning to `Cc1ccc(C(=O)NCc2ccccc2)cc1-c1nc(NC2CCNCC2)nc2c1CNC(=O)N2c1c(F)cccc1F` [21(b), 3-[8-(2,6-Difluorophenyl)-7-oxo-2-(4-piperidinylamino)-5,6,7,8-tetrahydropyrimido[4,5-d]pyrimidin-4-yl]-4-methyl-N-(phenylmethyl)benzamide], the melting point was 172 to 176 °C (dec.). Same read-out and setting: as for `Cc1ccc(C(=O)N(C)C)cc1-c1nc(N2CCN(C)CC2)nc2c1CNC(=O)N2c1c(F)cccc1F` [149(c), 3-[8-(2,6-difluorophenyl)-2-(4-methyl-1-piperazinyl)-7-oxo-5,6,7,8-tetrahydropyrimido[4,5-d]pyrimidin-4-yl]-N,N,4-trimethylbenzamide], the figure is 159 to 162 °C; as for `CCN(CC)C(=O)c1ccc(C)c(-c2nc(NCCN(C)C)nc3c2CNC(=O)N3c2c(F)cccc2F)c1` [156(c), 3-(8-(2,6-difluorophenyl)-2-{[2-(dimethylamino)ethyl]amino}-7-oxo-5,6,7,8-tetrahydropyrimido[4,5-d]pyrimidin-4-yl)-N,N-diethyl-4-methylbenzamide], 125 to 127 °C.

The next series relates to influx of neutrophils to the lung in LPS-challenged rats. The series can be described thus: Rat LPS neutrophilia model. Format: in vivo. The following applies: LPS aerosol 100 ug/ml 15 min, lavage 4 hours later; in at least one of the range of conditions tested. The protocol:
The effect of compounds on the influx of neutrophils to the lung in LPS-challenged rats is evaluated as follows. The test compound is suspended in one of the following solutions: 0.5% tween 80/PBS, 0.5% tween 80/saline, 10% EtOH/saline (with pH adjusted to 2.0, or 8.0 with HCl, or unadjusted), Saline @ pH 2.0, 6.5 or 8.0, 0.5% Tragacanth, 1% DMSO/20% Encapsin/Saline, or acidified 5% Tragacanth. The suspension process may be aided by the use of a glass homogenizer. For intratracheal administration, the animals are anesthetized with inhaled isoflurane and placed in a supine position, the trachea is intubated with a steel gavage needle (1.5 inch, 22 gauge, small ball) or a Penn-Century Microsprayer Aerosolizer (model IA-IB) and 200 ul of dosing solution is delivered. The animals are visually monitored during the recovery process, which typically occurs within two minutes.
Rats treated with compound or vehicle (15 min-24 hours pretreatment) are exposed to an LPS aerosol (100 ug/ml) for 15 min. Four hours later the rats are euthanized with pentobarbital (100 mg/kg, i.p.) and the airways are lavaged with 5 washes of 5 ml of phosphate buffered saline. The harvested cells are stained (Diffquick) and counted to determine total and differential cell data. In a typical study, macrophages represent 40-70% of the total cells, and polymorphonuclear cells 30-60% of the total cells. Inhibition of neutrophil levels relative to no compound controls is calculated based on the differential counts.
The assay has varying conditions, such as concentration, pretreat time, form of the compound (crystalline, amorphous, salts, micronised), and a wet or dry application of the compound. The data is obtained as % inhibition using a particular concentration and pretreat time.
`CN(C)CCNc1nc(-c2cccc(C(=O)Nc3ccccc3)c2)c2c(n1)N(c1c(F)cccc1F)C(=O)NC2` [Example 91, 3-(8-(2,6-difluorophenyl)-2-{[2-(dimethylamino)ethyl]amino}-7-oxo-5,6,7,8-tetrahydropyrimido[4,5-d]pyrimidin-4-yl)-N-phenylbenzamide]: the inhibition of neutrophilia entry is “statistically significant inhibition”.

`CN(C)CCNc1nc(-c2cccc(C(=O)Nc3nccs3)c2)c2c(n1)N(c1c(F)cccc1F)C(=O)NC2` [Example 92, 3-(8-(2,6-difluorophenyl)-2-{[2-(dimethylamino)ethyl]amino}-7-oxo-5,6,7,8-tetrahydropyrimido[4,5-d]pyrimidin-4-yl)-N-1,3-thiazol-2-ylbenzamide]: the inhibition of neutrophilia entry is on record as “statistically significant inhibition”. Still for that read-out and setting: the entry for `CN(C)CCNc1nc(-c2cccc(C(=O)Nc3ccc(F)cc3)c2)c2c(n1)N(c1c(F)cccc1F)C(=O)NC2` [Example 93, 3-(8-(2,6-difluorophenyl)-2-{[2-(dimethylamino)ethyl]amino}-7-oxo-5,6,7,8-tetrahydropyrimido[4,5-d]pyrimidin-4-yl)-N-(4-fluorophenyl)benzamide] is “statistically nonsignificant inhibition”.

For `Cc1c(F)cc(C(=O)Nc2ccccc2)cc1-c1nc(NCCN(C)C)nc2c1CNC(=O)N2c1c(F)cccc1F` [Example 112, 3-(8-(2,6-difluorophenyl)-2-{[2-(dimethylamino)ethyl]amino}-7-oxo-5,6,7,8-tetrahydropyrimido[4,5-d]pyrimidin-4-yl)-5-fluoro-4-methyl-N-phenylbenzamide], the inhibition of neutrophilia result was “statistically significant inhibition”. For `Cc1ccc(C(=O)Nc2nccs2)cc1-c1nc(NCCCN(C)C)nc2c1CNC(=O)N2c1c(F)cccc1F` [Example 119, 3-(8-(2,6-difluorophenyl)-2-{[3-(dimethylamino)propyl]amino}-7-oxo-5,6,7,8-tetrahydropyrimido[4,5-d]pyrimidin-4-yl)-4-methyl-N-1,3-thiazol-2-ylbenzamide], the inhibition of neutrophilia entry is “statistically significant inhibition”.

For the molecule `CCN(CC)CCCNc1nc(-c2cc(C(=O)Nc3nccs3)ccc2C)c2c(n1)N(c1c(F)cccc1F)C(=O)NC2` [Example 120, 3-[2-{[3-(diethylamino)propyl]amino}-8-(2,6-difluorophenyl)-7-oxo-5,6,7,8-tetrahydropyrimido[4,5-d]pyrimidin-4-yl]-4-methyl-N-1,3-thiazol-2-ylbenzamide], the inhibition of neutrophilia result is “statistically significant inhibition”. On to `Cc1ccc(C(=O)Nc2nccs2)cc1-c1nc(N(C)CCCN(C)C)nc2c1CNC(=O)N2c1c(F)cccc1F` [Example 124, 3-{8-(2,6-difluorophenyl)-2-[[3-(dimethylamino)propyl](methyl)amino]-7-oxo-5,6,7,8-tetrahydropyrimido[4,5-d]pyrimidin-4-yl}-4-methyl-N-1,3-thiazol-2-ylbenzamide], for which the inhibition of neutrophilia entry is “statistically nonsignificant inhibition”. Consider `CSc1ccc(NC(=O)c2ccc(C)c(-c3nc(NCCN(C)C)nc4c3CNC(=O)N4c3c(F)cccc3F)c2)cc1` [Example 127, 3-(8-(2,6-difluorophenyl)-2-{[2-(dimethylamino)ethyl]amino}-7-oxo-5,6,7,8-tetrahydropyrimido[4,5-d]pyrimidin-4-yl)-4-methyl-N-[4-(methylthio)phenyl]benzamide], for which the inhibition of neutrophilia entry was “statistically significant inhibition”. With `Cc1ccc(C(=O)Nc2nccs2)cc1-c1nc(NC[C@H](C)O)nc2c1CNC(=O)N2c1c(F)cccc1F` [Example 134, 3-(8-(2,6-difluorophenyl)-2-{[(2S)-2-hydroxypropyl]amino}-7-oxo-5,6,7,8-tetrahydropyrimido[4,5-d]pyrimidin-4-yl)-4-methyl-N-1,3-thiazol-2-ylbenzamide], the inhibition of neutrophilia entry was “statistically nonsignificant inhibition”.

For the molecule `Cc1ccc(C(=O)Nc2ccccc2)cc1-c1nc(NCCN(C)C)nc2c1CNC(=O)N2c1c(F)cccc1F` [Example 137, 3-(8-(2,6-difluorophenyl)-2-{[2-(dimethylamino)ethyl]amino}-7-oxo-5,6,7,8-tetrahydropyrimido[4,5-d]pyrimidin-4-yl)-4-methyl-N-phenylbenzamide], the inhibition of neutrophilia entry is “statistically significant inhibition”. As for `Cc1ccc(C(=O)Nc2ccc(F)c(F)c2)cc1-c1nc(NCCN(C)C)nc2c1CNC(=O)N2c1c(F)cccc1F` [Example 138, N-(3,4-difluorophenyl)-3-(8-(2,6-difluorophenyl)-2-{[2-(dimethylamino)-ethyl]amino}-7-oxo-5,6,7,8-tetrahydropyrimido[4,5-d]pyrimidin-4-yl)-4-methylbenzamide], the inhibition of neutrophilia result was “statistically significant inhibition”. Same read-out and setting: the entry for `COc1ccc(NC(=O)c2ccc(C)c(-c3nc(NCCN(C)C)nc4c3CNC(=O)N4c3c(F)cccc3F)c2)cn1` [Example 140, 3-(8-(2,6-difluorophenyl)-2-{[2-(dimethylamino)ethyl]amino}-7-oxo-5,6,7,8-tetrahydropyrimido[4,5-d]pyrimidin-4-yl)-4-methyl-N-[6-(methyloxy)-3-pyridinyl]benzamide] is “statistically significant inhibition”. Take `CCc1ccc(C(=O)Nc2nccs2)cc1-c1nc(NCCN(C)C)nc2c1CNC(=O)N2c1c(F)cccc1F` [Example 144, 3-(8-(2,6-difluorophenyl)-2-{[2-(dimethylamino)ethyl]amino}-7-oxo-5,6,7,8-tetrahydropyrimido[4,5-d]pyrimidin-4-yl)-4-ethyl-N-1,3-thiazol-2-ylbenzamide Trilfluoroacetate]: the inhibition of neutrophilia result was “statistically significant inhibition”.

Consider `Cc1ccc(C(=O)NC(C)C)cc1-c1nc(N2CCCN(C)CC2)nc2c1CNC(=O)N2c1c(F)cccc1F` [Example 179, 3-[8-(2,6-difluorophenyl)-2-(4-methylhexahydro-1H-1,4-diazepin-1-yl)-7-oxo-5,6,7,8-tetrahydropyrimido[4,5-d]pyrimidin-4-yl]-4-methyl-N-(1-methylethyl)benzamide Trifluoroacetate], for which the inhibition of neutrophilia result is “statistically nonsignificant inhibition”. Regarding `Cc1ccc(C(=O)NC(C)C)cc1-c1nc(NC2CCN(Cc3ccccc3)CC2)nc2c1CNC(=O)N2c1c(F)cccc1F` [Example 200, 3-(8-(2,6-difluorophenyl)-7-oxo-2-{[1-(phenylmethyl)-4-piperidinyl]amino}-5,6,7,8-tetrahydropyrimido[4,5-d]pyrimidin-4-yl)-4-methyl-N-(1-methylethyl)benzamide], the inhibition of neutrophilia result is reported as “statistically significant inhibition”.
